Legend:
[1] = isolated from filtrates of 4 to 6 week old culture of P. aeruginosa; cited from earlier work
[2] = Micelle formation upon mixing with FeCl3 (brightfield microscopy); type: physicochemical; settings: 0.2 M in ethanol mixed with 0.2 M FeCl3 in ethanol, 3/1 ratio, reduced to half volume
Excerpt: Micelle formation. […] Also, synthesized pseudan IX, 0.2 M in ethanol, was mixed with 0.2 M FeCl3 in ethanol in a 3/1 ratio. Following reduction to half the volume using a nitrogen bubbler, micelles were observed as above. An Olympus BX-60 microscope and an Optronics DEI 750 camera were used.

SMILES: CCCCCCCCCc1cc(O)c2ccccc2n1 [pseudan IX, 4-hydroxy-2-nonylquinoline]
- antibiotic activity [1]: shown to exhibit antibiotic activity
- micelle formation with iron [2]: Pink micelles, albeit smaller, are also evident
